Values of other authors, collected in patent US6352152B1, “Method and package for storing a pressurized container containing a drug” (Smithkline Beecham Corporation, priority 1998, dated 2002).

conditions: Pischtiak 1999, Solvay chemical data sheet

SMILES	maximum water solubility in the propellant
FC(F)(Cl)C(F)(F)Cl [CFC 114]	about 130 ppm
FCC(F)(F)F [HFC 134a, 1,1,1,2-tetrafluoroethane]	about 2200 ppm
FC(F)(Cl)Cl [CFC 12]	about 130 ppm
